Reference: ChEMBL document CHEMBL5385919, “A Survey of Recently Discovered Naturally Occurring Organohalogen Compounds” (J Nat Prod, 2024)
Values after ≈ are worked out from the molar mass of the structure shown. Blank lines part the entries; values can stand above or below the compound they belong to.

Key:
Plasmodium falciparum = test: Antiplasmodial activity against Plasmodium falciparum K1 assessed as reduction in parasite growth; format: functional, organism-based
Bacillus subtilis [1] = test: Antibacterial activity against Bacillus subtilis assessed as reduction in bacterial growth; format: functional
Staphylococcus aureus [2] = test: Antibacterial activity against Staphylococcus aureus assessed as reduction in bacterial growth; format: functional
HCT-8 = test: Cytotoxicity against human HCT-8 cells assessed as inhibition of cell growth incubated for 48 hrs by MTT assay; format: functional, cell-based; details: HCT-8, 48 h
Bacillus cereus = test: Antibacterial activity against Bacillus cereus assessed as reduction in bacterial growth; format: functional
Candida albicans = test: Antifungal activity against Candida albicans assessed as reduction in […] growth; format: functional
Staphylococcus aureus [3] = test: Antibacterial activity against methicillin resistant Staphylococcus aureus assessed as reduction in bacterial growth; format: functional, organism-based
MDA-MB-231 = test: Growth inhibition of human MDA-MB-231 cells assessed inhibition of cell growth; format: functional
[4] = tested on: Mycolicibacterium smegmatis; test: Antibacterial activity against Mycolicibacterium smegmatis assessed as reduction in bacterial growth; format: functional
Bacillus mycoides = test: Antibacterial activity against Bacillus mycoides assessed as reduction in bacterial growth; format: functional
Escherichia coli = test: Antibacterial activity against Escherichia coli assessed as reduction in bacterial growth; format: functional
Nannizzia gypsea = test: Antifungal activity against Microsporum gypseum assessed as reduction in fungal growth; format: functional
Bacillus subtilis [5] = test: Antibacterial activity against Bacillus subtilis ATCC 6633 assessed as reduction in bacterial growth; format: functional
Staphylococcus aureus [6] = test: Antibacterial activity against Staphylococcus aureus FDA 209P JC-1 assessed as reduction in bacterial growth; format: functional
HepG2 = test: Cytotoxicity against human HepG2 cells assessed as inhibition of cell growth; format: functional, cell-based
KB = test: Cytotoxicity against human KB cells assessed as inhibition of cell growth incubated for 48 hrs by MTT assay; format: functional, cell-based
HL-60 = test: Cytotoxicity against human HL-60 cells assessed as inhibition of cell growth incubated for 48 hrs by MTT assay; format: functional, cell-based; details: HL-60, 48 h
MCF7 = test: Cytotoxicity against human MCF7 cells assessed as inhibition of cell growth incubated for 48 hrs by MTT assay; format: functional, cell-based; details: MCF7, 48 h
MGC-803 = test: Cytotoxicity against human MGC-803 cells assessed as inhibition of cell growth incubated for 48 hrs by MTT assay; format: functional, cell-based; details: MGC-803, 48 h
RAW264.7 = test: Antiinflammatory activity in mouse RAW264.7 cells assessed as inhibition of LPS-induced NO production pretreated with compound for 1 hr followed by LPS-induction and measured after 48 hrs by microplate reader analysis; format: functional, cell-based
Vibrio harveyi = test: Antimicrobial activity against Vibrio harveyi assessed as bacterial growth inhibition incubated for 12 hrs by serial dilution analysis; format: functional
[7] = molecular target: E3 ubiquitin-protein ligase CBL-B (Homo sapiens, UniProt Q13191); test: Inhibition of recombinant Cbl-b (unknown origin) in presence of ATP incubated for 60 mins by ELISA analysis
E3 ubiquitin-protein ligase CBL-B, sequence (Q13191 whole entry): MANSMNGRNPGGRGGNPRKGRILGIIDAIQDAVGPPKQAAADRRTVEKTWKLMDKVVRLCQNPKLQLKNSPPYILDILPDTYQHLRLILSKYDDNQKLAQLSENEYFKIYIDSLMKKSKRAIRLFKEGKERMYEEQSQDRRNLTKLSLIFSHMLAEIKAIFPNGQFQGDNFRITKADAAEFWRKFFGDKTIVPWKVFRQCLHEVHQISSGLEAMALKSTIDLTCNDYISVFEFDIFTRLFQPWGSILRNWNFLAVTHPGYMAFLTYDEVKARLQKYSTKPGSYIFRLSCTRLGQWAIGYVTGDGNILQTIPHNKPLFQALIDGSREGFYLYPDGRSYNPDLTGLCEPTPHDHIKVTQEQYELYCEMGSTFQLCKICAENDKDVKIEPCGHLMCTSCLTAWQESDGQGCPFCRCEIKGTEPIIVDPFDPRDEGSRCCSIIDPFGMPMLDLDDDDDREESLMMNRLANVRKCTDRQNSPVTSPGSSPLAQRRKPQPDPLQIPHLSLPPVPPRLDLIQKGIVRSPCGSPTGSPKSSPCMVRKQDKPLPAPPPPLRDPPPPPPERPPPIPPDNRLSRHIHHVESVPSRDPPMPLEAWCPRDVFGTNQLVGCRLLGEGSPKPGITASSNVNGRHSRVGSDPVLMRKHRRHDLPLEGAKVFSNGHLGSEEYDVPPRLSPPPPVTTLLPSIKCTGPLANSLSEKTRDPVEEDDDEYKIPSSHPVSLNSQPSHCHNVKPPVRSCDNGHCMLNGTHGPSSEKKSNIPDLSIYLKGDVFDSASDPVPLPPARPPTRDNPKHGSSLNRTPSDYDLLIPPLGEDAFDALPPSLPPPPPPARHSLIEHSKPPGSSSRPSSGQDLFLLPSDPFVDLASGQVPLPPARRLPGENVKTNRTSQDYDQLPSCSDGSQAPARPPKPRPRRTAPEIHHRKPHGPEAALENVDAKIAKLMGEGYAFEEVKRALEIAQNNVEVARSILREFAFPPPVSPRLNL

Aspergillus sydowii = test: Antifungal activity against Aspergillus sydowii SCSIO 00305 assessed as inhibition of fungal growth; format: functional, organism-based
[8] = Inhibition of neuronal excitability in mouse Primary neocortical neuron assessed as reduction in 4-AP-induced SCO amplitude measured for 1 hr by FLIPR assay; format: functional, cell-based
[9] = Inhibition of neuronal excitability in mouse Primary neocortical neuron assessed as reduction in 4-AP-induced SCO frequency measured for 1 hr by FLIPR assay; format: functional, cell-based
[10] = tested on: Trypanosoma brucei rhodesiense; test: Antitrypanosomal activity against Trypanosoma brucei rhodesiense; format: functional, organism-based
P388 = test: Cytotoxicity against mouse P388 cells assessed as inhibition of cell growth; format: functional, cell-based
Kocuria rhizophila = test: Antibacterial activity against Kocuria rhizophila ATCC9341 assessed as reduction in bacterial growth; format: functional
Bacillus subtilis [11] = test: Antibacterial activity against Bacillus subtilis PCI219 assessed as reduction in bacterial growth; format: functional

MIC (Bacillus subtilis [1]): 0.4 µg/mL (≈ 0.808 µM) | MIC (Staphylococcus aureus [2]): 0.8 µg/mL (≈ 1.62 µM)
SMILES: Cc1cc(O)cc2c1[C@@H]1O[C@@](C)(Cc3cc4c(c(O)c31)C(=O)c1c(O)cc(O)c(Cl)c1C4(C)C)O2
IC50 (Plasmodium falciparum): 4.49 µM

SMILES: C=C(COC(=O)Cc1cc(O)c(O)c(Cl)c1)[C@@]12O[C@@H]1[C@@]1(C)C(=CC2=O)CC[C@@H](O)[C@@H]1C
IC50 (HCT-8): 5.4 µM

MIC (Bacillus cereus): 1.56 µg/mL (≈ 3.47 µM) | MIC (Staphylococcus aureus [2]): 1.56 µg/mL (≈ 3.47 µM)
SMILES: C/C=C(\C)c1c(Cl)c(O)c(C)c2c1Oc1c(C)c(O)c(Cl)c(/C(C)=C/C)c1C(=O)O2

MIC (Candida albicans): 1 µg/mL (≈ 2.54 µM)
SMILES: O=C1NC(=O)c2c1c1c3cc(Cl)ccc3[nH]c1c1[nH]c3ccc(Cl)cc3c21

SMILES: CC[C@H](C)[C@H]1O[C@@H](CC(C)=O)O[C@@]1(C)/C=C/C1=CC2=C(Cl)C(=O)[C@](C)(O)[C@H](OC(C)=O)[C@H]2CO1
MIC (Staphylococcus aureus [3]): 12.5 µg/mL

GI50 (MDA-MB-231): 0.72 µM
SMILES: CCCC[C@@H](Cl)CCC[C@@H](Cl)C[C@@H](OC)c1cc(O)c([C@@H](CCCC)CCC[C@@H](Cl)C[C@@H](OC)c2cc(O)cc(O)c2)c(O)c1

SMILES: COc1ccc2[nH]c3c(O)cccc3c2c1Cl
MIC (Candida albicans): 32 µg/mL (≈ 129 µM) | MIC (Staphylococcus aureus [3]): 32 µg/mL | MIC [4]: 32 µg/mL (≈ 129 µM) | MIC (Bacillus mycoides): 32 µg/mL (≈ 129 µM)

SMILES: O=C1C=Cc2c3c4c(c(O)ccc4c4ccc(O)c1c24)[C@@H](O)[C@H](Cl)[C@@H]3O
MIC (Escherichia coli): 6.25 µM (≈ 2.3 µg/mL)

MIC (Nannizzia gypsea): 4 µg/mL (≈ 11.9 µM) | MIC (Staphylococcus aureus [2]): 26.8 µg/mL (≈ 79.8 µM)
SMILES: C=C(C)[C@@H](O)CC/C(C)=C1\CC[C@](C)(Cl)[C@@H](Br)C1

GI50 (MDA-MB-231): 0.72 µM
SMILES: CCCC[C@H]1CCCCC[C@@H](OC)c2cc(O)c(c(O)c2)[C@@H](CCCC)CCC[C@@H](Cl)C[C@@H](OC)c2cc(O)c1c(O)c2

MIC (Bacillus subtilis [5]): 0.098 µg/mL (≈ 0.172 µM) | MIC (Staphylococcus aureus [6]): 0.049 µg/mL (≈ 0.086 µM)
SMILES: CO[C@H]1C[C@@H](O)[C@H](OC)c2oc3c4c5c(c(O)c3c(=O)c21)-c1c(cc2c(Cl)c(C)[nH]c(=O)c2c1O)C[C@H]5OCO4

GI50 (MDA-MB-231): 0.72 µM
SMILES: CCCC[C@H]1CCC[C@@H](Cl)C[C@@H](OC)c2cc(O)c(c(O)c2)[C@@H](CC)CCC[C@@H](Cl)C[C@@H](OC)c2cc(O)c1c(O)c2

SMILES: C=C1C[C@H](O)[C@H](Br)C(C)(C)[C@]12CC=C(COC)CC2
IC50 (HepG2): 4.08 µM

SMILES: COc1c(Cl)ccc2c(=O)c3c(O)c4c5c(c3oc12)OCO[C@@H]5Cc1c-4c(O)c2c(=O)[nH]c(C)c(Cl)c2c1O
IC50 (KB): 0.008 µg/mL (≈ 0.014 µM) | IC50 (HL-60): 0.008 µg/mL (≈ 0.014 µM) | IC50 (MCF7): 0.008 µg/mL (≈ 0.014 µM) | IC50 (MGC-803): 0.008 µg/mL (≈ 0.014 µM)

IC50 (RAW264.7): 3.69 µM
SMILES: C#C/C=C\CC(Br)[C@@H]1C[C@@H](OC(C)=O)[C@H](CCCCCC)O1 (stereo not given in full)

MIC (Vibrio harveyi): 2 µg/mL (≈ 6.19 µM)
SMILES: O=C(N[C@H](CO)[C@H](O)c1ccc([N+](=O)[O-])cc1)C(Cl)Cl [CHLORAMPHENICOL]

IC50 [7]: 33 µM
SMILES: Cn1cc(Br)cc1C(=O)NC[C@@H]1[C@@H](CNC(=O)c2ccc(Br)[nH]2)Cc2nc(N)[nH]c2[C@H]1c1c[nH]c(N)n1

GI50 (MDA-MB-231): 0.72 µM
SMILES: CCCC[C@H]1CCC[C@@H](Cl)CCc2cc(O)c(c(O)c2)[C@@H](CCCC)CCC[C@@H](Cl)C[C@@H](OC)c2cc(O)c1c(O)c2

MIC (Nannizzia gypsea): 8 µg/mL (≈ 23.8 µM) | MIC (Staphylococcus aureus [2]): 15.4 µg/mL (≈ 45.9 µM)
SMILES: C=C(CCC=C(C)C)[C@]1(O)CC[C@@](C)(Cl)[C@H](Br)C1

SMILES: COc1cc2oc3cc4c(c(OC)c3c(=O)c2c(OC)c1Cl)[C@@H]1C=CO[C@@H]1O4
IC50 (Aspergillus sydowii): 2.9 µM

SMILES: Cc1cc(O)c2c3c(c(O)cc(OC[C@@H](O)C(C)(C)Cl)c13)C(=O)C2=O
MIC (Staphylococcus aureus [3]): 12.5 µM

EC50 [8]: 5.62 µM | EC50 [9]: 4.77 µM
SMILES: CC(C)(O)C(=O)OC[C@](C)(O)[C@H]1OC2=CC[C@@]3(C)[C@@](O)(CC[C@H]4Cc5c([nH]c6cc(Cl)ccc56)[C@@]43C)C2=CC1=O

IC50 [10]: 1.2 µM
SMILES: CC(=O)O[C@@H](C/C=C/Cl)[C@@H](C)C(=O)/C=C/CCNC(=O)CC/C=C/C(C)(C)C

MIC (Kocuria rhizophila): 6.25 µg/mL (≈ 19.4 µM) | MIC (Bacillus subtilis [11]): 6.25 µg/mL (≈ 19.4 µM) | MIC (Staphylococcus aureus [6]): 6.25 µg/mL (≈ 19.4 µM)
SMILES: Cc1c(O)cc2c(c1O)C(=O)C1=C(OC(C)(C)[C@H](Cl)C1)C2=O
IC50 (P388): 9.8 µM
